Data taken from ChEMBL document CHEMBL4376823, “The discovery of a potent and selective third-generation EGFR kinase inhibitor as a therapy for EGFR L858R/T790M double mutant non-small cell lung cancer” (Eur J Med Chem, 2019).

Assays:
[1] = biological target: T1, Epidermal growth factor receptor (Homo sapiens, UniProt P00533, L858R/T790M); test: Inhibition of recombinant human GST-tagged EGFR T790M/L858R mutant expressed in baculovirus expression system using Tyr 04 as substrate incubated for 1 hr by Z'-LYTE assay
Target sequence in this assay (P00533 25-1210 T790M/L858R limits assumed): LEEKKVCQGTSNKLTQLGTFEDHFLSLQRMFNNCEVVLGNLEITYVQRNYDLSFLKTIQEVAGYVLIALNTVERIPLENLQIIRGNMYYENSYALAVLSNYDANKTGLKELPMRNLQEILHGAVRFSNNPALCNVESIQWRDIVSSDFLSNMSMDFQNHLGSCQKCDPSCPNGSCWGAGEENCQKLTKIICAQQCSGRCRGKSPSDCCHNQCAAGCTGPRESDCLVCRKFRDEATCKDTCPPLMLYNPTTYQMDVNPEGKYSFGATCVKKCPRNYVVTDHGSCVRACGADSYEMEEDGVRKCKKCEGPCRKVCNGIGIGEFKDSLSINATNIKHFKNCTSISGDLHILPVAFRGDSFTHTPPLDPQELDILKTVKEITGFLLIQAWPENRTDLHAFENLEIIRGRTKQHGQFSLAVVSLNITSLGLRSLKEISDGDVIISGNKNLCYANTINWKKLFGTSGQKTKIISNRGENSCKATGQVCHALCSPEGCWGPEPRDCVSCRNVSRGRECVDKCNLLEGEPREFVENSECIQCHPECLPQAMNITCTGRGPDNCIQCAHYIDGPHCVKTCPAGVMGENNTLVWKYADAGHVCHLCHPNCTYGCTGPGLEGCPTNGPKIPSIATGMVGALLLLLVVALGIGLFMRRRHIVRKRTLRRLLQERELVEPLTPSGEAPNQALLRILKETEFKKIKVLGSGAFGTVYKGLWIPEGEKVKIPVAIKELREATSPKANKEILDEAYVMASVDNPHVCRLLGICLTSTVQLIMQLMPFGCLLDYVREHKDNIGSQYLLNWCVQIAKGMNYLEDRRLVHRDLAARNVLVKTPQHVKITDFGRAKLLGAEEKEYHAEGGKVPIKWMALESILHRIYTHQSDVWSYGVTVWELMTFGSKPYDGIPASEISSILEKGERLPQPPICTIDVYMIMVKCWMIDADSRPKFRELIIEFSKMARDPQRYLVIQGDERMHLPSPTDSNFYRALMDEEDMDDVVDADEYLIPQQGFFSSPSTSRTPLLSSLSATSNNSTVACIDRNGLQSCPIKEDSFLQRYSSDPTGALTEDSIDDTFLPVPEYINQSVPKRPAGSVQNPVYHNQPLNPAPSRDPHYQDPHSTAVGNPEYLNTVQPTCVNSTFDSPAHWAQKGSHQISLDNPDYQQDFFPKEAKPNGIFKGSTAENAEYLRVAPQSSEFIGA

[2] = biological target: T2, Epidermal growth factor receptor (Homo sapiens, UniProt P00533); test: Inhibition of recombinant human GST-tagged EGFR (668 to 1210 residues) expressed in baculovirus expression system using Tyr 04 as substrate incubated for 1 hr by Z'-LYTE assay
T2 sequence (P00533 whole entry, the tested form may be a part): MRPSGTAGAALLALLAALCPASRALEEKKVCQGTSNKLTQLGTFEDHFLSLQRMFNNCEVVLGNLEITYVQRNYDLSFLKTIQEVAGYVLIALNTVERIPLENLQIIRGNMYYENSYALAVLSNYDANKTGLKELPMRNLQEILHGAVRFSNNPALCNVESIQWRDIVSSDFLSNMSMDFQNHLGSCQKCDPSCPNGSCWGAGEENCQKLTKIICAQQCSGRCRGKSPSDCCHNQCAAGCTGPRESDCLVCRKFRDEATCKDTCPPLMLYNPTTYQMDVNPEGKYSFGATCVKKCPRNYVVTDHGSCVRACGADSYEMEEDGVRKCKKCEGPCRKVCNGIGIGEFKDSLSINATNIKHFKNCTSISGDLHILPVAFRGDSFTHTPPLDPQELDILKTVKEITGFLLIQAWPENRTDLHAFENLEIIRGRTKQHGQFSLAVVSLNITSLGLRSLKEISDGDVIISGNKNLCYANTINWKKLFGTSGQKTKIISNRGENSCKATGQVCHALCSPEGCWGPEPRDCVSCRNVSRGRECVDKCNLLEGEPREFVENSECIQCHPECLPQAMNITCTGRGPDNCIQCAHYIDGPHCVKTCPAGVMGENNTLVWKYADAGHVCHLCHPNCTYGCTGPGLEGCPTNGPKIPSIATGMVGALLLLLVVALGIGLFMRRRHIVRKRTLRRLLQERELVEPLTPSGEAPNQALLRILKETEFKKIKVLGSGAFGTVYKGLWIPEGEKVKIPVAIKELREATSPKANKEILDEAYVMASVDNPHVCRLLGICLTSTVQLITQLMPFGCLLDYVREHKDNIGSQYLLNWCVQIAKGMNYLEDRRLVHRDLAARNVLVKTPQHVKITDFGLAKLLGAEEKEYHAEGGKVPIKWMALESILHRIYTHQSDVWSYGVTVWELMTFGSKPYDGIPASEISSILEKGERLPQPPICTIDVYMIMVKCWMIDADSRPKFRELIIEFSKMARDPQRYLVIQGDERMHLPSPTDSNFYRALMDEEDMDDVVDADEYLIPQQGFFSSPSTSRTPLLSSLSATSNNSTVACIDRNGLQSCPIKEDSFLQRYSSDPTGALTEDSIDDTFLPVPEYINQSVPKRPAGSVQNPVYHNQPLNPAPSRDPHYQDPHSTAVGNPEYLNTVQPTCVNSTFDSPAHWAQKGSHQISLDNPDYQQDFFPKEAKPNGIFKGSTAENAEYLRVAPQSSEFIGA

[3] = Cytotoxicity against human HLF cells expressing EGFR assessed as reduction in cell viability incubated for 72 hrs by MTT assay; type: cell-based
[4] = Selectivity index, ratio of IC50 for human LO2 cells to IC50 for human NCI-H1975 cells expressing EGFR T790M/L858R mutant; type: toxicity
[5] = Selectivity index, ratio of IC50 for human HLF cells to IC50 for human NCI-H1975 cells expressing EGFR T790M/L858R mutant
[6] = test system: NCI-H1975; test: Inhibition of cell migration in human NCI-H1975 cells at 50 nM incubated for 24 hrs by phase contrast microscopy relative to control; type: functional; settings: NCI-H1975, 24 h
[7] = test system: NCI-H1975; test: Induction of apoptosis in human NCI-H1975 cells assessed as viable cells at 5 nM incubated for 24 hrs by propidium iodide and annexin-V FITC staining based flow cytometry (reference value: 98.82 %); type: functional; settings: NCI-H1975, 24 h, read-out: Activity
[8] = test system: NCI-H1975; test: Induction of apoptosis in human NCI-H1975 cells assessed as early apoptotic cells at 5 nM incubated for 24 hrs by propidium iodide and annexin-V FITC staining based flow cytometry (reference value: 0.94 %); type: functional
[9] = test system: NCI-H1975; test: Induction of apoptosis in human NCI-H1975 cells assessed as late apoptotic cells at 5 nM incubated for 24 hrs by propidium iodide and annexin-V FITC staining based flow cytometry (reference value: 0.23 %); type: functional
[10] = test system: NCI-H1975; test: Induction of apoptosis in human NCI-H1975 cells assessed as late apoptotic cells at 25 nM incubated for 24 hrs by propidium iodide and annexin-V FITC staining based flow cytometry (reference value: 0.23 %); type: functional
[11] = test system: NCI-H1975; test: Induction of apoptosis in human NCI-H1975 cells assessed as necrotic cells at 25 nM incubated for 24 hrs by propidium iodide and annexin-V FITC staining based flow cytometry (reference value: 0.01 %); type: functional
[12] = test system: NCI-H1975; test: Induction of apoptosis in human NCI-H1975 cells assessed as late apoptotic cells at 50 nM incubated for 24 hrs by propidium iodide and annexin-V FITC staining based flow cytometry (reference value: 0.23 %); type: functional
[13] = test system: NCI-H1975; test: Induction of apoptosis in human NCI-H1975 cells assessed as viable cells at 5 nM incubated for 48 hrs by propidium iodide and annexin-V FITC staining based flow cytometry (reference value: 99.05 %); type: functional; settings: NCI-H1975, 48 h, read-out: Activity
[14] = test system: NCI-H1975; test: Induction of apoptosis in human NCI-H1975 cells assessed as early apoptotic cells at 5 nM incubated for 48 hrs by propidium iodide and annexin-V FITC staining based flow cytometry (reference value: 0.95 %); type: functional
[15] = test system: NCI-H1975; test: Induction of apoptosis in human NCI-H1975 cells assessed as late apoptotic cells at 5 nM incubated for 48 hrs by propidium iodide and annexin-V FITC staining based flow cytometry (reference value: 0.23 %); type: functional
[16] = test system: NCI-H1975; test: Induction of apoptosis in human NCI-H1975 cells assessed as necrotic cells at 25 nM incubated for 48 hrs by propidium iodide and annexin-V FITC staining based flow cytometry (reference value: 0.01 %); type: functional
[17] = test system: NCI-H1975; test: Induction of apoptosis in human NCI-H1975 cells assessed as late apoptotic cells at 50 nM incubated for 48 hrs by propidium iodide and annexin-V FITC staining based flow cytometry (reference value: 0.23 %); type: functional
[18] = test system: NCI-H1975; test: Induction of apoptosis in human NCI-H1975 cells assessed as viable cells at 5 nM incubated for 72 hrs by propidium iodide and annexin-V FITC staining based flow cytometry (reference value: 97.55 %); type: functional; settings: NCI-H1975, 72 h, read-out: Activity
[19] = test system: NCI-H1975; test: Induction of apoptosis in human NCI-H1975 cells assessed as early apoptotic cells at 5 nM incubated for 72 hrs by propidium iodide and annexin-V FITC staining based flow cytometry (reference value: 2.43 %); type: functional
[20] = test system: NCI-H1975; test: Induction of apoptosis in human NCI-H1975 cells assessed as viable cells at 25 nM incubated for 72 hrs by propidium iodide and annexin-V FITC staining based flow cytometry (reference value: 97.55 %); type: functional; settings: NCI-H1975, 72 h, read-out: Activity
[21] = test system: NCI-H1975; test: Induction of apoptosis in human NCI-H1975 cells assessed as viable cells at 50 nM incubated for 72 hrs by propidium iodide and annexin-V FITC staining based flow cytometry (reference value: 97.55 %); type: functional; settings: NCI-H1975, 72 h, read-out: Activity
[22] = test system: NCI-H1975; test: Induction of apoptosis in human NCI-H1975 cells assessed as early apoptotic cells at 50 nM incubated for 72 hrs by propidium iodide and annexin-V FITC staining based flow cytometry (reference value: 2.43 %); type: functional
[23] = test system: NCI-H1975; test: Induction of apoptosis in human NCI-H1975 cells assessed as necrotic cells at 50 nM incubated for 72 hrs by propidium iodide and annexin-V FITC staining based flow cytometry (reference value: 0.01 %); type: functional
[24] = Cmax in ICR mouse at 10 mg/kg, po; type: ADME, organism-based; parameters: dose 10 mg/kg, route oral; settings: in vivo
[25] = AUC (0 to infinity) in ICR mouse at 10 mg/kg, po; type: ADME, organism-based; parameters: dose 10 mg/kg, route oral, time infinity; settings: in vivo
[26] = MRT (0 to t) in ICR mouse at 10 mg/kg, po; type: ADME, organism-based; settings: in vivo
[27] = Tmax in ICR mouse at 5 mg/kg, iv; type: ADME, organism-based; settings: in vivo
[28] = AUC (0 to t) in ICR mouse at 5 mg/kg, iv; type: ADME, organism-based; settings: in vivo
[29] = AUC (0 to infinity) in ICR mouse at 5 mg/kg, iv; type: ADME, organism-based; parameters: dose 5 mg/kg, time infinity, route intravenous; settings: in vivo
[30] = MRT (0 to infinity) in ICR mouse at 5 mg/kg, iv; type: ADME, organism-based; settings: in vivo
[31] = Clearance in ICR mouse at 5 mg/kg, iv; type: ADME, organism-based; settings: in vivo
[32] = biological target: T1, Epidermal growth factor receptor; test: Inhibition of EGFR T790M/L858R mutant in human NCI-H1975 cells assessed as reduction in EGFR Y1068 phosphorylation incubated for 4 hrs by Western blot analysis; type: cell-based
Target sequence in this assay (P00533 whole entry T790M/L858R, looked up, the tested form may be a part): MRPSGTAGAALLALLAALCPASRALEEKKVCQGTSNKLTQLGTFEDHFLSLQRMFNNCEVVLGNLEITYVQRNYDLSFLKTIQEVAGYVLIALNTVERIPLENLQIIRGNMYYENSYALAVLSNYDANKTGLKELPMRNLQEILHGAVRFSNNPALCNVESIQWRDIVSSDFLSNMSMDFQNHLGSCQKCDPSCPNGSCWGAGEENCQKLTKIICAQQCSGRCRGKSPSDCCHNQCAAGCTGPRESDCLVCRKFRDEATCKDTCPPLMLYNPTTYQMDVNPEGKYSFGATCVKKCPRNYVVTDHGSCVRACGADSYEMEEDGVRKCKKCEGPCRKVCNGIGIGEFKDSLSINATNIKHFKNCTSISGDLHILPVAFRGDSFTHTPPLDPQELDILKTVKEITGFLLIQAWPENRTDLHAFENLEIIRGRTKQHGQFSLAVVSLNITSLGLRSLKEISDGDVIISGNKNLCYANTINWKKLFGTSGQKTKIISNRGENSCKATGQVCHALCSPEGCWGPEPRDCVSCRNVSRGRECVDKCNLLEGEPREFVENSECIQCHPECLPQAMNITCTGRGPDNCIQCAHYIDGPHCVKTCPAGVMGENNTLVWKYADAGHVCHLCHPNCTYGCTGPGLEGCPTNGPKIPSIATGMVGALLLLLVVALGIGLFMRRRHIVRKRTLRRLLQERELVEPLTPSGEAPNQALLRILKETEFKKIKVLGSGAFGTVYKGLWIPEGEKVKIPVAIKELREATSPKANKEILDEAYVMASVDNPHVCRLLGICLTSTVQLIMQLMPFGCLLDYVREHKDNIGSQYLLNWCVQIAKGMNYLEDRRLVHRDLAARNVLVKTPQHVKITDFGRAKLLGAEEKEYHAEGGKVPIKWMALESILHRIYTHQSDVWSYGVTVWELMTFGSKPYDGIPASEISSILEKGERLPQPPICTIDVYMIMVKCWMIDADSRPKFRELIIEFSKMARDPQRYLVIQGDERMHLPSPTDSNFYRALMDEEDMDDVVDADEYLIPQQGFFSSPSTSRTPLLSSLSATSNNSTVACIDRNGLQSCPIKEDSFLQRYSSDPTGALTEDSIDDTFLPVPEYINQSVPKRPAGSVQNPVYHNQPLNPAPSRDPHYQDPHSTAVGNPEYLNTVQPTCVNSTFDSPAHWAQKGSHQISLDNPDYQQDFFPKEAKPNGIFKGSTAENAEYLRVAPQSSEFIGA

[33] = biological target: T2, Epidermal growth factor receptor; test: Inhibition of EGFR in human NCI-H292 cells assessed as reduction in EGFR Y1068 phosphorylation at incubated for 4 hrs by Western blot analysis; type: cell-based

With C=CC(=O)Nc1cc(Nc2nccc(-c3cn(C)c4ccccc34)n2)c(OC)cc1[S+]([O-])CCN(C)C (single isomer, unassigned; (-)) the IC50 [1] was 4 nM, the IC50 [2] was 229 nM and the IC50 [3] was 9140 nM. The “Ratio IC50” value [4] was > 1000, the “Ratio IC50” value [5] was 910 and the inhibition at 0.05 µM [6] was 87.6%. For the same molecule, the viability at 0.005 µM [7] was 83.6%, the Activity [8] was 14.89% and the Activity [9] was 1.17%. It also gave an Activity [10] of 0.86%, an Activity [11] of 0.14% and an Activity [12] of 2.3%. For the same molecule, the viability at 0.005 µM [13] was 77%, the Activity [14] was 22.89% and the Activity [15] was 0.06%. For the same molecule, the Activity [16] was 0.69%, the Activity [17] was 29.59% and the viability at 0.005 µM [18] was 57.5%. For the same molecule, the Activity [19] was 21.59%, the viability at 0.025 µM [20] was 35.2% and the viability at 0.05 µM [21] was 11.3%. The Activity [22] was 58.1%, the Activity [23] was 1.84% and the Cmax [24] was 695 ng/mL. For the same molecule, the AUC(0-inf) [25] was 2000 ng·h/mL, the MRT last [26] was 2.32 h and the Tmax [27] was 4.8 min. For the same molecule, the AUC(0-t) [28] was 1290 ng·h/mL, the AUC(0-inf) [29] was 1300 ng·h/mL and the MRT inf [30] was 1.21 h. The clearance [31] was 63.9 mL/min/kg, the EC50 [32] was 7.06 nM and the EC50 [33] was 90.2 nM.
